Here are results for nine compounds from US5643784A, “Indan derivatives” (H, Lundbeck A/S, priority 1990, dated 1997).

The target of one experiment is T1, 5-HT2 receptors (Rattus norvegicus, UniProt P14842).
T1 construct: cortical tissue is dissected and weighed; from tissue; host or cells: cortex of male Wistar rats, crude membranes
The experiment is described as follows: Inhibition of 3H-ketanserin binding to 5-HT2 receptors in rat cortex in vitro. The following applies: for IC50: 3H-Ketanserin 0.5 nM, rat cortex, 37° C., 30 min, read-out: Receptor Binding, IC50 5-HT2 3H-Ket. As for the experimental part: Method in Hyttel, Pharmacology & Toxicology, 61, 126-129, 1987.
Male Wistar (Mol:Wist) rats (125-250 g) are sacrificed and cortical tissue is dissected and weighed. The tissue is homogenized (Ultra Turrax, 10 sec.) in 10 ml of ice-cold 50 mM tris buffer pH 7.7 (at 25° C.). The centrifuge glassware used in this step has been rinsed by sonication for 10 min. in ethanol. The homogenate is centrifuged twice at 20,000 g for 10 min. at 4° C. with rehomogenization of the pellet in 10 ml ice-cold buffer. The final pellet is homogenized in 500 vol (w/v) ice-cold buffer.
Incubation tubes kept on ice in triplicate receive 100 μl of drug solution in water (or water for total binding) and 2000 μl of tissue suspension (final tissue content corresponds to 4 mg original tissue). […] After incubation for 30 min. the samples are filtered under vacuum (0-50 mBar) through Whatman GF/F filters (25 mm). The tubes are rinsed with 5 ml ice-cold buffer which are then poured on the filters. Thereafter, the filters are washed with 2×5 ml of buffer. The filters are placed in counting vials and 4 ml of appropriate scintillation fluid (e.g. Picofluor™15) are added. After shaking for 1 h and storage 2 hrs in the dark the content of radioactivity is determined by liquid scintillation counting. Specific binding is obtained by subtracting the nonspecific binding in the presence of 1 μM mianserin.
(§1) For determination of the inhibition of binding five concentrations of drugs covering 3 decades are used.
The IC50 value is determined as the concentration at which the binding is 50% of the total binding in control samples minus the nonspecific binding in the presence of 1 μM mianserin.

Another experiment concerns the target T2, dopamine D-2 receptors (Rattus norvegicus, UniProt P61169).
T2 construct: striatal tissue is dissected and weighed; from tissue; host or cells: corpus striatum of male Wistar rats, crude membranes
The experiment is described as follows: Inhibition of 3H-spiperone binding to dopamine D-2 receptors in rat corpus striatum in vitro. The following applies: 3H-spiperone 0.5 nM, rat corpus striatum, 37° C., 10 min; read-out: Receptor Binding; IC50 DA D-2 3H-Spi. As for the experimental part:
INHIBITION OF ^3 H-SPIPERONE BINDING TO DOPAMINE D-2 RECEPTORS IN RAT CORPUS STRIATUM IN VITRO
By this method the inhibition by drugs of the binding of ^3 H-spiperone (0.5 nM) to dopamine D-2 receptors in membranes from rat corpus striatum is determined in vitro.
Male Wistar (Mol:Wistar) rats (125-250 g) are sacrificed and striatal tissue is dissected and weighed. The tissue is homogenized (Ultra Turrax, 10 sec.) in 10 ml of ice-cold 50 mM K-phosphate buffer pH 7.4 (at 25° C.). The homogenate is centrifuged twice at 20,000 g for 10 min. at 4° C. with rehomogenization of the pellet in 10 ml ice-cold buffer. The final pellet is homogenized in 1300 vol (w/v) ice-cold buffer.
Incubation tubes kept on ice in triplicate receive 100 μl of drug solution in water (or water for total binding) and 4000 μl of tissue suspension (final tissue content corresponds to 3.08 mg original tissue). The binding experimental is initiated by addition of 100 μl of ^3 H-spiperone (final concentration 0.5 nM) and by placing the tubes in a 37° C. water bath. After incubation for 10 min. the samples are filtered under vacuum (0-50 mBar) through Whatman GF/F filters (25 mm). The tubes are rinsed with 5 ml ice-cold buffer which are then poured on the filters. Thereafter, the filters are washed with 2×5 ml of buffer. The filters are placed in counting vials and 4 ml of appropriate scintillation fluid (e.g. Picofluor ™15) are added. After shaking for 1 h and storage 2 hrs in the dark the content of radioactivity is determined by liquid scintillation counting. Specific binding is obtained by subtracting the nonspecific binding in the presence of 10 μM of 6,7-ADTN.
as §1
^3 H-Spiperone=[phenyl-4-^3 H]-spiperone from Amersham International plc. England, specific activity 15-25 Ci/mmol.

In another experiment the target is α1 adrenoceptors. As to the kind of experiment: Inhibition of 3H-prazosin binding to α1 adrenoceptors in rat brain in vitro. The following applies: for IC50: 3H-Prazosin 0.25 nM, rat brain, 25° C., 20 min, read-out: Receptor Binding, IC50 α1 3H-Praz. As for the experimental part:
INHIBITION OF ^3 H-PRAZOSIN BINDING TO α1 ADRENOCEPTORS IN RAT BRAIN IN VITRO
Method and results in Hyttel & Larsen, J. Neurochem, 44, 1615-1622, 1985; Skarsfeldt & Hyttel, Eur. J. Pharmacol. 125, 323-340, 1986.
Male Wistar (Mol:Wist) rats (125-200 g) are sacrificed and brain tissue is dissected and weighed. The tissue is homogenized (Ultra Turrax, 10 sec.) in 10 ml of ice-cold […] Tris buffer pH 7,7 (at 25° C.). The homogenate is centrifuged twice at 20,000 g for 10 min. at 4° C. with rehomogenization of the pellet in 10 ml ice-cold buffer. The final pellet is homogenized in 400 vol (w/v) ice-cold buffer.
Incubation tubes kept on ice in triplicate receive 100 μl of drug solution in water (or water for total binding) and 4000μl of tissue suspension (final tissue content corresponds to 10 mg original tissue). The binding experiment is initiated by addition of 100 μl of ^3 H-Prazosin (final concentration 0.25 nM) and by placing the tubes in a 25° C. water bath. After incubation for 20 min. the samples are filtered under vacuum (0-50 mBar) through Whatman GF/F filters (25 mm). The tubes are rinsed with 5 ml ice-cold buffer which then are poured on the filters. Thereafter, the filters are washed with 5 ml of buffer. The filters are placed in counting vials and 4 ml of appropriate scintillation fluid (e.g. Picofluor™15) are added. After shaking for 1 h and storage 2 hrs in the dark the content of radioactivity is determined by liquid scintillation counting. Specific binding is obtained by subtracting the nonspecific binding in the presence of 1 μM of Prazosin.
as §1
The measured cpm are plotted against drug concentration on semilogarithmic paper and the best fitting S-shaped curve is drawn. The IC50 value is determined as the concentration at which the binding is 50% of the total binding in control samples minus the nonspecific binding in the presence of 1 μM of Prazosin.
^3 H-Prazosin=[furoyl-5-^3 H]-Prazosin from New England Nuclear, specific activity approximately 20 Ci/mmol.

T1 sequence (P14842 whole entry): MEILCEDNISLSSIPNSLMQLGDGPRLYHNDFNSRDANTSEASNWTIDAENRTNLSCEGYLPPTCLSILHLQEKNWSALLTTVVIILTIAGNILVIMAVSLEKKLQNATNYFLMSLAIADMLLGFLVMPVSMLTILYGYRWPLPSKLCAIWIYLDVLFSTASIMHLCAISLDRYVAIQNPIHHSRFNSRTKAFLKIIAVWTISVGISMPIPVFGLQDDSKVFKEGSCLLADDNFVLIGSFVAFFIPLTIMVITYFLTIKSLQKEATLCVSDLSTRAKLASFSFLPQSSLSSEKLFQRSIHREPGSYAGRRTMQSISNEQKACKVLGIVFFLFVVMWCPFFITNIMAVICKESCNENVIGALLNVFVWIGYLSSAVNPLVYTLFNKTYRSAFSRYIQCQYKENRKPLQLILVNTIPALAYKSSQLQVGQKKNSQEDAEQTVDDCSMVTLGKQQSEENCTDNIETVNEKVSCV
T2 sequence (P61169 whole entry): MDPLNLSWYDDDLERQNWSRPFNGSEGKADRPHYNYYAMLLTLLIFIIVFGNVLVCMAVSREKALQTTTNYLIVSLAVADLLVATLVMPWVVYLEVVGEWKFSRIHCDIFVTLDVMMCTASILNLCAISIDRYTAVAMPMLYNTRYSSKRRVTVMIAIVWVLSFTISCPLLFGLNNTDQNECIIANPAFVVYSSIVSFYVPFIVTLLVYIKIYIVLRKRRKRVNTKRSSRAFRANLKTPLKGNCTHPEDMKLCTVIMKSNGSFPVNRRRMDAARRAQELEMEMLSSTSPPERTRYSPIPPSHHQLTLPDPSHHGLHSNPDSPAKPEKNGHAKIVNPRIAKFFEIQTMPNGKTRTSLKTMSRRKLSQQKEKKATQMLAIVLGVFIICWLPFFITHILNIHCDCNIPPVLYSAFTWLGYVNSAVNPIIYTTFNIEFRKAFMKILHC

For the compound `CSc1ccc2c(c1)[C@H](c1ccc(F)cc1)C[C@H]2N1CCN(CCN2CCNC2=O)CC1` (relative stereo) [Compound 22, Trans-1-[2-[4-[3-(4-fluorophenyl)-5-(methylthio)-2,3-dihydro-1H-inden-1-yl]piperazin-1-yl]ethyl]-2-imidazolidinone], the results for the IC50 at 5-HT2 receptors, at dopamine D-2 receptors and at α1 adrenoceptors were 3.5 nM, 1100 nM and 240 nM, respectively.
Consider `Cc1ccc([C@@H]2C[C@@H](N3CCN(CCN4CCN(C(C)C)C4=O)CC3)c3ccc(Cl)cc32)cc1` (relative stereo) [Compound 26, Trans-1-[2-[4-[5-chloro-3-(4-methylphenyl)-2,3-dihydro-1H-inden-1-yl]piperazin-1-yl]ethyl]-3-isopropyl-2-imidazolidinone], for which the results for the IC50 on 5-HT2 receptors, at dopamine D-2 receptors and on α1 adrenoceptors were 11 nM, 450 nM and 60 nM, respectively.
With `O=C1NCCN1CCN1CCN([C@@H]2C[C@@H](c3ccc(F)cc3)c3ccccc32)CC1` [Irindalon, reference compound], at 5-HT2 receptors, the “affinity to 5-HT2 receptors (in words)” value is recorded as “high affinity to 5-HT2 receptors” and the IC50 turned out to be 3.4 nM. At dopamine D-2 receptors, the IC50 amounted to 400 nM. In the experiment with α1 adrenoceptors, the “affinity to α1 adrenoceptors (in words)” value is “significant affinity to oh adrenoceptors” and the IC50 came out at 16 nM.
As for `O=C1N(CCO)CCN1CCN1CCN([C@@H]2C[C@@H](c3ccc(F)cc3)c3cc(Cl)ccc32)CC1` (relative stereo) [Compound 37, Trans-1-[2-[4-[5-chloro-3-(4-fluorophenyl)-2,3-dihydro-1H-inden-1-yl]piperazin-1-yl]-ethyl]-3-(2-hydroxyethyl)-2-imidazolidinone], the values for the IC50 on 5-HT2 receptors, on dopamine D-2 receptors and at α1 adrenoceptors were 6.1 nM, 320 nM and 710 nM, respectively.
`O=C1NCCN1CCN1CCN([C@H]2C[C@H](c3ccc(F)cc3)c3cc(C(F)(F)F)ccc32)CC1` (relative stereo) [Compound 1, Trans-1-[2-[4-[3-(4-fluorophenyl)-5-(trifluoromethyl)-2,3-dihydro-1H-inden-11-yl]-1-piperazinyl]ethyl]-2-imidazolidinone]: the IC50 at 5-HT2 receptors is 2.9 nM; on dopamine D-2 receptors, 760 nM; on α1 adrenoceptors, 320 nM.
Consider `CC(C)N1CCN(CCN2CCN([C@@H]3C[C@@H](c4ccc(F)cc4)c4cc(C(F)(F)F)ccc43)CC2)C1=O` (relative stereo) [Compound 13, Trans-1-[2-[4-[3-(4-fluorophenyl)-5-(trifluoromethyl)-2,3-dihydro-1H-inden-1-yl]piperazin-1-yl]ethyl]-3-isopropyl-2-imidazolidinone], for which the values for the IC50 at 5-HT2 receptors, at dopamine D-2 receptors and at α1 adrenoceptors were 3.7 nM, 510 nM and 350 nM, respectively.
For the compound `OCCN1CCN([C@@H]2C[C@@H](c3ccc(F)cc3)c3cc(C(F)(F)F)ccc32)CC1` (relative stereo) [Compound 5, Trans-4-[3-(4-fluorophenyl)-5-(trifluoromethyl)-2,3-dihydro-1H-inden-1-yl]-1-piperazineethanol], the results for the IC50 on 5-HT2 receptors, on dopamine D-2 receptors and at α1 adrenoceptors were 8.9 nM, 1300 nM and 380 nM, respectively.
In the case of `CC(C)N1CCN(CCN2CCN([C@@H]3C[C@@H](c4ccc(Cl)cc4)c4cc(Cl)ccc43)CC2)C1=O` (relative stereo) [Compound 27, Trans-1-[2-[4-[5-chloro-3-(4-chlorophenyl)-2,3-dihydro-1H-inden-1-yl]piperazin-1-yl]ethyl]-3-isopropyl-2-imidazolidinone], the IC50 was determined as 15 nM on 5-HT2 receptors, 280 nM on dopamine D-2 receptors and 180 nM on α1 adrenoceptors.
In the case of `CC(C)N1CCN(CCN2CCN([C@@H]3C[C@@H](c4ccc(F)cc4)c4cc(Cl)ccc43)CC2)C1=O` (relative stereo) [Compound 11, Trans-1-[2-[4-[5-chloro-3-(4-fluorophenyl)-2,3-dihydro-1H-inden-1-yl]piperazin-1-yl]-ethyl]-3-isopropyl-2-imidazolidinone], the values for the IC50 at 5-HT2 receptors, at dopamine D-2 receptors and on α1 adrenoceptors were 3.9 nM, 280 nM and 260 nM, respectively.
